Measurements as given in patent US8148391B2 (Cephalon, Inc., priority 2006, dated 2012).
Read-outs that look alike come from different tables or passages of the source. Blank lines part the entries; values can stand above or below the molecule they belong to.

Assays:
[1] = target: T1, baculovirus-expressed ALK (Homo sapiens, UniProt Q9UM73); test: ALK Kinase Assay (ELISA-type, time-resolved fluorescence); assay type: biochemical
T1 construct: host or cells: baculovirus expression system
Procedure, shortened: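 Substrate coating: phospholipase C-γ, 10 μg/mL in TBS. Kinase step: 30 ng/ml ALK, 15 min, 37° C. Detection and analysis: Eu-N1 PT66 antibody, with IC50 fitted as a sigmoidal variable-slope dose-response curve.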

[2] = target: T2, c-Met (cytoplasmic domain) (Homo sapiens, UniProt P08581); test: c-Met Kinase Assay (same methods as for ALK, with modifications); assay type: biochemical
T2 construct: 10 ng/mL c-Met (cytoplasmic domain, Invitrogen Corporation #PV3143); purchased Invitrogen Corporation PV3143
Procedure, shortened: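 This plate-based kinase format uses immobilized phospholipase C-γ as substrate, phosphorylated by c-Met cytoplasmic domain (10 ng/mL) at 37° C for 15 minutes.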

[3] = 1 μM ATP (Km level), 30 ng/ml ALK, 37° C., 15 minutes, read-out: ALK Activity (ALK kinase inhibition, IC50 class)
[4] = 1 μM ATP (Km level), 10 ng/mL c-Met, read-out: cMet Activity (c-Met kinase inhibition, IC50 class)
[5] = 1 μM ATP (Km level), read-out: ALK Activity (ALK Kinase Inhibition, IC50)
[6] = 1 μM ATP (Km level), read-out: cMet Activity (c-Met Kinase Inhibition, IC50)
[7] = ALK kinase inhibition, 1 μM ATP, read-out: ALK Activity
[8] = c-Met kinase inhibition, 1 μM ATP, read-out: cMet Activity
[9] = ALK kinase inhibition, 1 μM ATP (Km level), read-out: ALK Activity
[10] = c-Met kinase inhibition, 1 μM ATP (Km level), read-out: cMet Activity

T2 sequence (P08581 956-1390 limits assumed): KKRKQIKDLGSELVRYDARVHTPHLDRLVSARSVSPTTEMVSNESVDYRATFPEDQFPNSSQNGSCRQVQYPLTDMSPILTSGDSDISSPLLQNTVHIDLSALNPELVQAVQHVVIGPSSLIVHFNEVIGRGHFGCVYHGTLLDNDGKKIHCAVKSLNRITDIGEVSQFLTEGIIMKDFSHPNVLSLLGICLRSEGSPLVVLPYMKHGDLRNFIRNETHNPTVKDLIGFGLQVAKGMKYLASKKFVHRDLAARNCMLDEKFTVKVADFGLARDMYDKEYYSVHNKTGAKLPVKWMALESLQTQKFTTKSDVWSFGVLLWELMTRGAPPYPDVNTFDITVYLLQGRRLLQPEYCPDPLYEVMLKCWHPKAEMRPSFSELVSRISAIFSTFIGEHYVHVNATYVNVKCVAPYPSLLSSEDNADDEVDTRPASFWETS
T1 sequence (Q9UM73 19-1620): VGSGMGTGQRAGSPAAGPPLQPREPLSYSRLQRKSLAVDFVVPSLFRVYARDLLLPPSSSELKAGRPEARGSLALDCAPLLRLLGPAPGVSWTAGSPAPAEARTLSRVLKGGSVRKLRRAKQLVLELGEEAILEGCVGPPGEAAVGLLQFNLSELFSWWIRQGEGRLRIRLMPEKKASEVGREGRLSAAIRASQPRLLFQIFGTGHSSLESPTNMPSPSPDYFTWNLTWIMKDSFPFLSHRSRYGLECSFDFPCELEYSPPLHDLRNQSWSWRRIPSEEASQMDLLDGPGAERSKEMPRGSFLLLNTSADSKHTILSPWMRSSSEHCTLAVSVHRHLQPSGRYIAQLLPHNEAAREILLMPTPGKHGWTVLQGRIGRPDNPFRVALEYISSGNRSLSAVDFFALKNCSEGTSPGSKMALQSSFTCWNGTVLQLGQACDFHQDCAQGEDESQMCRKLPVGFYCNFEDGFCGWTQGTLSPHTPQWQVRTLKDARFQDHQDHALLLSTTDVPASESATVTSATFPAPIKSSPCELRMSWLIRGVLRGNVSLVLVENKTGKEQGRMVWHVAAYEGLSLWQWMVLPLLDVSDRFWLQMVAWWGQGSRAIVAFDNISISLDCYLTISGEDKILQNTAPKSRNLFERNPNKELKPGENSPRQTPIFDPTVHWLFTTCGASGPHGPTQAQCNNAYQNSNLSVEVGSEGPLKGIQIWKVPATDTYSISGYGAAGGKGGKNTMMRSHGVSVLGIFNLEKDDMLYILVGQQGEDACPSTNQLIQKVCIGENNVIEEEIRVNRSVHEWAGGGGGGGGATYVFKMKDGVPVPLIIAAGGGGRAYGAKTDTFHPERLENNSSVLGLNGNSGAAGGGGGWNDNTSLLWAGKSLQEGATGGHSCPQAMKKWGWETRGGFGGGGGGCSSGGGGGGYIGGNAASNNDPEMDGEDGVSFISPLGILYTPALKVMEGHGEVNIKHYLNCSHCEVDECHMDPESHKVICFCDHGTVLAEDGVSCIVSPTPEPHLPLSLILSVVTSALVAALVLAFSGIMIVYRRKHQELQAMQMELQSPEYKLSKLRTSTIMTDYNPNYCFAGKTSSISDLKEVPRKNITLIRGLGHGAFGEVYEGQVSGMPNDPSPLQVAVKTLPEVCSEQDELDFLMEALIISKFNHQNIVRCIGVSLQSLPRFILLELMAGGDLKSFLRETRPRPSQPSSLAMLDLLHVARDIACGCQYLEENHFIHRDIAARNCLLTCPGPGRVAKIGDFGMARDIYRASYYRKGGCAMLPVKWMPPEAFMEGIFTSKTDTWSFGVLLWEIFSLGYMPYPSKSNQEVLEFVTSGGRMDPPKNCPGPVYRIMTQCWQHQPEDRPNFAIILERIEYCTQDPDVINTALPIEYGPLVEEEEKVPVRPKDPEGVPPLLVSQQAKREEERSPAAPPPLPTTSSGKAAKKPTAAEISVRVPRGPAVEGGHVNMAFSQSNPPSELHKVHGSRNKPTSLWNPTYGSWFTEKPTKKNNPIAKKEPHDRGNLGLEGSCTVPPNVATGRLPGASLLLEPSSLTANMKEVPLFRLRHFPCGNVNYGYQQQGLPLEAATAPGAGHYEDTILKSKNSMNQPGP

SMILES: CNC(=O)c1cc(OC)ccc1Nc1nc(Nc2ccc3c(c2)C(C)(C)CCC(=O)N3)ncc1Cl [Example 609, 2-[5-Chloro-2-(5,5-dimethyl-2-oxo-2,3,4,5-tetrahydro-1H-benzo[b]azepin-7-ylamino)-pyrimidin-4-ylamino]-5-methoxy-N-methyl-benzamide]
IC50 [1, 5]: < 100 nM
IC50 [2, 6]: 100 to 1000 nM

SMILES: CNS(=O)(=O)c1ccccc1Nc1nc(Nc2ccc3c(c2)C2CCC3CN(C(C)C)C2)ncc1Cl (centres unmarked) [Example 274, 2-[5-Chloro-2-(10-isopropyl-10-aza-tricyclo[6.3.2.0*2,7*]trideca-2,4,6-trien-4-ylamino)-pyrimidin-4-ylamino]-N-methyl-benzenesulfonamide]
IC50 [1, 9]: < 100 nM
IC50 [2, 10]: < 100 nM

SMILES: CNC(=O)c1ccccc1Nc1nc(Nc2ccc3c(c2)N(C)CCNC3)ncc1Cl [Example 417, 2-[5-Chloro-2-(1-methyl-2,3,4,5-tetrahydro-1H-benzo[e][1,4]diazepin-8-ylamino)-pyrimidin-4-ylamino]-N-methylbenzamide]
IC50 [1, 9]: < 100 nM
IC50 [2, 10]: < 100 nM

SMILES: CCN1CCN(CC)c2cc(Nc3ncc(Cl)c(Nc4ccccc4-c4nccn4C)n3)ccc2C1 [Example 715, 5-Chloro-N*2*-(1,4-diethyl-2,3,4,5-tetrahydro-1H-benzo[e][1,4]diazepin-8-yl)-N*4*-[2-(1-methyl-1H-imidazol-2-yl)-phenyl]-pyrimidine-2,4-diamine]
IC50 [1, 5]: < 100 nM
IC50 [2, 6]: 100 to 1000 nM

SMILES: C#CCN1CC2CCC(C1)c1cc(Nc3ncc(Cl)c(Nc4ccccc4C(=O)NC)n3)ccc12 (centres unmarked) [Example 279, 2-[5-Chloro-2-(10-prop-2-ynyl-10-aza-tricyclo[6.3.2.0*2,7*]trideca-2,4,6-trien-4-ylamino)-pyrimidin-4-ylamino]-N-methyl-benzamide]
IC50 [1, 9]: < 100 nM
IC50 [2, 10]: < 100 nM

SMILES: CNC(=O)c1ccccc1Nc1nc(Nc2ccc3c(c2)C2CCC3CN(CCF)C2)ncc1Cl (centres unmarked) [Example 280, 2-{5-Chloro-2-[10-(2-fluoro-ethyl)-10-aza-tricyclo[6.3.2.0*2,7*]trideca-2,4,6-trien-4-ylamino]-pyrimidin-4-ylamino}-N-methyl-benzamide]
IC50 [1, 9]: < 100 nM
IC50 [2, 10]: < 100 nM

SMILES: COc1cc(N2CCOCC2)ccc1Nc1nc(Nc2ccc3c(c2)CCN(C[C@@H](O)C(F)(F)F)CC3)ncc1Cl [Example 333, (R)-3-{7-[5-Chloro-4-(2-methoxy-4-morpholin-4-yl-phenylamino)-pyrimidin-2-ylamino]-1,2,4,5-tetrahydro-benzo[d]azepin-3-yl}-1,1,1-trifluoro-propan-2-ol]
IC50 [1, 9]: < 100 nM
IC50 [2, 10]: 1000 to 10000 nM

SMILES: C#CCN1CC2OC(C1)c1cc(Nc3ncc(Cl)c(Nc4ccccc4C(=O)NC)n3)ccc12 (centres unmarked) [Example 63, 2-[5-Chloro-2-(10-prop-2-ynyl-12-oxa-10-aza-tricyclo[6.3.1.0*2,7*]dodeca-2,4,6-trien-4-ylamino)-pyrimidin-4-ylamino]-N-methyl-benzamide]
IC50 [1, 9]: 100 to 1000 nM
IC50 [2, 10]: < 100 nM

SMILES: CC1(C)CCC(=O)Nc2ccc(Nc3ncc(Cl)c(Nc4ccccc4C(=O)NC4CC4)n3)cc21 [Example 341]
IC50 [1, 9]: < 100 nM
IC50 [2, 10]: 100 to 1000 nM

SMILES: CNC(=O)c1ccccc1Nc1nc(Nc2ccc3c(c2)C2CCC3CN(CCOC)C2)ncc1Cl (centres unmarked) [Example 282, 2-{5-Chloro-2-[10-(2-methoxy-ethyl)-10-aza-tricyclo[6.3.2.0*2,7*]trideca-2,4,6-trien-4-ylamino]-pyrimidin-4-ylamino}-N-methyl-benzamide]
IC50 [1, 9]: < 100 nM
IC50 [2, 10]: < 100 nM

SMILES: COCCN1CCc2cc(Nc3ncc(Cl)c(Nc4ccccc4NS(C)(=O)=O)n3)c(OC)cc2CC1 [Example 242, N-(2-{5-Chloro-2-[8-methoxy-3-(2-methoxy-ethyl)-2,3,4,5-tetrahydro-1H-benzo[d]azepin-7-ylamino]-pyrimidin-4-ylamino}-phenyl)-methanesulfonamide]
IC50 [1, 9]: < 100 nM
IC50 [2, 10]: 1000 to 10000 nM

SMILES: CCN1C(=O)CCCc2ccc(Nc3ncc(Cl)c(Nc4c(F)cccc4C(=O)NC)n3)cc21 [Example 358, 2-[5-Chloro-2-(1-ethyl-2-oxo-2,3,4,5-tetrahydro-1H-benzo[b]azepin-8-ylamino)pyrimidin-4-ylamino]-3-fluoro-N-methyl-benzamide]
IC50 [1, 9]: < 100 nM
IC50 [2, 10]: < 100 nM

SMILES: CCN1CCc2ccc(Nc3ncc(Cl)c(Nc4ccc(N5CCOCC5)cc4OC)n3)cc2CC1 [Example 442, 5-Chloro-N*2*-(3-ethyl-2,3,4,5-tetrahydro-1H-benzo[d]azepin-7-yl)-N*4*-(2-methoxy-4-morpholin-4-yl-phenyl)-pyrimidine-2,4-diamine]
IC50 [1, 9]: < 100 nM
IC50 [2, 10]: 1000 to 10000 nM

Other lines, results leading:

IC50 [1, 3]: < 100 nM
IC50 [2, 4]: < 100 nM
SMILES: CCNC(=O)c1cccc(F)c1Nc1nc(Nc2ccc3c(c2)CCN(CC(=O)NC)CC3)ncc1Cl [Example 1372, 2-[5-Chloro-2-(3-methylcarbamoylmethyl-2,3,4,5-tetrahydro-1H-benzo[d]azepin-7-ylamino)-pyrimidin-4-ylamino]-N-ethyl-3-fluoro-benzamide]

IC50 [1, 5]: 100 to 1000 nM
IC50 [2, 6]: > 10000 nM
SMILES: CCN1C(=O)CN(CC(=O)N(C)C)Cc2cc(OC)c(Nc3ncc(Cl)c(Nc4ccc(N5CCOCC5)cc4OC)n3)cc21 [Example 727, 2-{8-[5-Chloro-4-(2-methoxy-4-morpholin-4-yl-phenylamino)-pyrimidin-2-ylamino]-1-ethyl-7-methoxy-2-oxo-1,2,3,5-tetrahydro-benzo[e][1,4]diazepin-4-yl}-N,N-dimethyl-acetamide]

IC50 [1, 7]: 100 to 1000 nM
IC50 [2, 8]: < 100 nM
SMILES: CNC(=O)c1cccc(F)c1Nc1nc(Nc2ccc3c(c2)N(CCOC)C(=O)CCC3)ncc1Br [Example 1473, 2-{5-Bromo-2-[1-(2-methoxy-ethyl)-2-oxo-2,3,4,5-tetrahydro-1H-benzo[b]azepin-8-ylamino]-pyrimidin-4-ylamino}-3-fluoro-N-methyl-benzamide]

IC50 [1, 3]: < 100 nM
IC50 [2, 4]: < 100 nM
SMILES: COCCN1CCc2ccc(Nc3ncc(Cl)c(Nc4c(F)cccc4C(=O)NCC#N)n3)cc2CC1 [Example 1079, 2-{5-Chloro-2-[3-(2-methoxy-ethyl)-2,3,4,5-tetrahydro-1H-benzo[d]azepin-7-ylamino]-pyrimidin-4-ylamino}-N-cyanomethyl-3-fluoro-benzamide]

IC50 [1, 5]: < 100 nM
IC50 [2, 6]: 100 to 1000 nM
SMILES: Cn1cnc2c(Nc3nc(Nc4ccc5c(c4)C(C)(C)CCC(=O)N5)ncc3Cl)cccc21 [Example 1005, 7-[5-Chloro-4-(1-methyl-1H-benzoimidazol-4-ylamino)-pyrimidin-2-ylamino]-5,5-dimethyl-1,3,4,5-tetrahydro-benzo[b]azepin-2-one]

IC50 [1, 7]: 100 to 1000 nM
IC50 [2, 8]: 100 to 1000 nM
SMILES: COCCOc1ccccc1Nc1nc(Nc2ccc3c(c2)CCOC(=O)N3C)ncc1Cl [Example 1777, 2-{5-Chloro-4-[2-(2-methoxy-ethoxy)-phenylamino]-pyrimidin-2-ylamino}-5-methyl-8,9-dihydro-5H-7-oxa-5-aza-benzocyclohepten-6-one]

IC50 [1, 7]: 100 to 1000 nM
IC50 [2, 8]: < 100 nM
SMILES: CNC(=O)c1ccc(Cl)c(Cl)c1Nc1nc(Nc2ccc3c(c2)CCOC(=O)N3C)ncc1Cl [Example 1757, 3,4-Dichloro-2-[5-chloro-2-(5-methyl-6-oxo-5,6,8,9-tetrahydro-7-oxa-5-aza-benzocyclohepten-2-ylamino)-pyrimidin-4-ylamino]-N-methyl-benzamide]

IC50 [1, 7]: < 100 nM
IC50 [2, 8]: 1000 to 10000 nM
SMILES: COc1cc2c(cc1Nc1ncc(Cl)c(Nc3ccccc3S(=O)(=O)N3CCCC3)n1)NC(=O)CN(CC1CC1)C2 [Example 1668, 8-{5-Chloro-4-[2-(pyrrolidine-1-sulfonyl)-phenylamino]-pyrimidin-2-ylamino}-4-cyclopropylmethyl-7-methoxy-1,3,4,5-tetrahydro-benzo[e][1,4]diazepin-2-one]

IC50 [1, 7]: 1000 to 10000 nM
IC50 [2, 8]: 100 to 1000 nM
SMILES: C#CCNC(=O)c1cc(F)cc(F)c1Nc1nc(Nc2ccc3c(c2)NC(=O)CCC3)ncc1Cl [Example 1729, 2-[5-Chloro-2-(2-oxo-2,3,4,5-tetrahydro-1H-benzo[b]azepin-8-ylamino)-pyrimidin-4-ylamino]-3,5-difluoro-N-prop-2-ynyl-benzamide]

IC50 [1, 3]: < 100 nM
IC50 [2, 4]: > 10000 nM
SMILES: COc1cc2c(cc1Nc1ncc(Cl)c(N[C@@H]3CCCC[C@H]3NS(C)(=O)=O)n1)CCC(NCCO)CC2 (single isomer, unassigned) [Example 1095]

IC50 [1, 3]: > 10000 nM
IC50 [2, 4]: 1000 to 10000 nM
SMILES: COc1cccc(C(=O)NCCC#N)c1Nc1nc(Nc2ccc3c(c2)CCCC(=O)N3C)ncc1Cl [Example 1062, 2-[5-Chloro-2-(1-methyl-2-oxo-2,3,4,5-tetrahydro-1H-benzo[b]azepin-7-ylamino)-pyrimidin-4-ylamino]-N-(2-cyano-ethyl)-3-methoxy-benzamide]

IC50 [1, 7]: < 100 nM
IC50 [2, 8]: < 100 nM
SMILES: COCCN1CCc2ccc(Nc3ncc(Cl)c(Nc4ccccc4S(=O)(=O)N4CCC(O)C4)n3)cc2CC1 (centres unmarked) [Example 1492, 1-(2-{5-Chloro-2-[3-(2-methoxy-ethyl)-2,3,4,5-tetrahydro-1H-benzo[d]azepin-7-ylamino]-pyrimidin-4-ylamino}-benzenesulfonyl)-pyrrolidin-3-ol]
